{"source": "patent US9101603B2", "about": "“Targeting of CYP1B1 in the treatment of head and neck cancer and lung cancer” (Institute for Cancer Research, priority 2010, dated 2015)", "type_in_all_cases": "cell-based", "key": {"MSK-Leuk1 cells [1]": {"test_system": "MSK-Leuk1 cells", "assay": "Apoptosis assay (Guava Nexin kit, annexin V positive cells)", "conditions": "72 h; for decrease of apoptosis by exposure to E2: 1 nM E2; for effect on the E2-mediated decrease in apoptosis: fulvestrant 1 μM added to 1 nM E2", "description": "(§1) For all the experiments that involved estradiol (E2) exposure, MSK-Leuk1 cells were cultured in phenol red-free and serum-free DermaLife® K Medium (Lifeline Cell Technology, Walkersville, Md.). SCC cells were cultured in their respective media with no phenol red, supplemented with charcoal-stripped serum (Gibco, Carlsbad, Calif.). Cells were incubated for 48 h to remove endogenous estrogens and then plated at 70% confluence. After 24 h, the medium was replaced with either control medium containing vehicle (0.01% ethanol) or medium supplemented with 1 nM E2 (Sigma-Aldrich, St. Louis, Mo.). Cells were harvested after the appropriate treatment period and analyzed.\nApoptosis assay. Apoptosis was assessed using the Guava Nexin kit (Millipore, Billerica, Mass.). Fifty thousand cells were plated per well in 6-well plates. After the appropriate treatment, floating cells were collected, combined with attached cells following trypsinization, and resuspended in DermaLife® K Medium (Lifeline Cell Technology, Walkersville, Md.) supplemented with 5% FBS. The cell suspension (100 μl) was incubated with 100 μl of Guava® Nexin Reagent for 20 min, according to the manufacturer's instructions. Two thousand cells were analyzed from each sample using the Guava® EasyCyte™ system, and the resulting data were expressed as a percentage of apoptotic cells (annexin V positive cells/total number of cells counted)."}, "MSK-Leuk1 cells [2]": {"test_system": "MSK-Leuk1 cells", "assay": "Cell motility assay (scratch gap closure, 16 h), vector- or CYP1B1 shRNA-expressing cells", "conditions": "1 nM E2, vector- and CYP1B1 shRNA-expressing MSK-Leuk1 cells", "description": "as §1\nCell motility assay. MSK-Leuk1 cells, expressing either vector or CYP1B1 shRNA, were cultured in phenol red-free and serum-free medium for 48 h and then plated at 70% confluence. After 24 h, the cells were treated with either vehicle or E2 (1 nM) in triplicate, as described above. […] The area devoid of cells was measured on every image using MetaMorph 7.0 (Molecular Devices, Inc., Sunnyvale, Calif.). The gap closure percentages were calculated as (area at 0 h−area at 16 h)/(area at 0 h).\nIn addition, a time-lapse movie capturing the process of gap closure in vector-expressing MSK-Leuk1 cells was obtained. […] The percentage of proliferating cells (those rounded up for cell division) was counted in this representative area."}, "MSK-Leuk1 cells [3]": {"test_system": "MSK-Leuk1 cells", "assay": "Cell proliferation (total DNA content, Fluorescent DNA Quantitation kit)", "conditions": "vector-expressing cells; 1 nM E2; 72 h; not statistically significant", "description": "as §1\nCell proliferation. Fifty thousand cells/well were plated in 6-well plates. After the appropriate treatment, the DNA content of the cells, an indirect measure of proliferation, was determined using a Fluorescent DNA Quantitation kit (Bio-Rad Laboratories, Hercules, Calif.). In brief, cells were harvested, sonicated in 0.1×TEN assay buffer (Bio-Rad Laboratories) for 5 s, and incubated with a Hoechst dye mixture (BioRad Laboratories) for 1 h. Total DNA was measured using Fluoroscan Ascent FL (Thermo Fisher Scientific, Waltham, Mass.) at an excitation wavelength of 360 nm and an emission wavelength of 460 nm."}}}
{"smiles": "C[C@]12CC[C@@H]3c4ccc(O)cc4CC[C@H]3[C@@H]1CC[C@@H]2O", "note": "[E2, 17β-estradiol]", "values": [{"measurement": "decrease of apoptosis by exposure to E2", "setting": "MSK-Leuk1 cells [1]; CYP1B1 shRNA-expressing cells, P=0.015", "value": 30.1, "unit": "%"}, {"measurement": "decrease of apoptosis by exposure to E2", "setting": "MSK-Leuk1 cells [1]; vector-expressing cells, P=0.030", "value": 25.5, "unit": "%"}, {"measurement": "effect of E2 treatment on motility", "setting": "MSK-Leuk1 cells [2]", "value": "not affected"}, {"measurement": "induction of cell proliferation by E2 exposure", "setting": "MSK-Leuk1 cells [3]", "value": 10, "unit": "%"}]}
{"smiles": "C[C@]12CC[C@@H]3c4ccc(O)cc4C[C@@H](CCCCCCCCC[S+]([O-])CCCC(F)(F)C(F)(F)F)[C@H]3[C@@H]1CC[C@@H]2O", "note": "(stereo partly drawn) [fulvestrant]", "values": [{"measurement": "effect on the E2-mediated decrease in apoptosis", "setting": "MSK-Leuk1 cells [1]", "value": "restored"}, {"measurement": "effect on the E2-mediated decrease in apoptosis", "setting": "MSK-Leuk1 cells [1]; listed as Fulvestrant", "value": "restores"}]}
